Measured values reported in US20240226101A1, “PYRIMIDINYLAMINOBENZENES FOR LUNG CANCER TREATMENT” (Suzhou Puhe BioPharma Co., LTD., priority 2021, published 2024).
Values joined by “and” are separate entries in the source; they are usually repeats but may differ in a detail not shown here. Equal entries are not always repeated.

Experiments:
[1] = test system: LU0387 lung cancer PDX model; test: Antitumor activity in subcutaneous LU0387 lung cancer PDX xenograft mouse model; type: in vivo; conditions: for TV (mm^3) on Day 0: Day 0 (randomization, baseline); for TV (mm^3) on Day 0 / RTV (relative tumor volume) / TV (mm^3) on Day 21: benzoate salt
Description: Compound A13 as a single agent was evaluated for lung cancer treatment in a subcutaneous LU0387 lung cancer PDX model using female Balb/c nude mice. Tumor fragments from stock mice were harvested for inoculation into mice. Each mouse was inoculated subcutaneously in the right rear flank with a PDX model LU0387 tumor fragment (2-3 mm in diameter) for tumor development.
The randomization started when the mean tumor size reached approximately 517.37 mm^3. Twenty-four mice were randomly allocated to 8 study groups, with 3 mice per group. The date of randomization was designated as Day 0.
After tumor inoculation, the mice were checked daily for morbidity and mortality. The mice were checked for any effects of tumor growth and treatments on behavior such as mobility, food and water consumption, body weight gain/loss, eye/hair matting, and any abnormalities. Mortality and observed clinical signs were recorded for each individual mouse in detail.
Tumor volumes (TV) were measured twice per week after randomization using a caliper and the volume was calculated using the formula: V=(L×W×W)/2, where V is tumor volume, L is tumor length (the longest tumor dimension), and W is tumor width (the longest tumor dimension perpendicular to L).
Compound A13 was administered orally as a benzoate salt in a citrate/phosphate buffer at pH 4.0 at 20, 40, and 80 mg/kg once daily for 21 days. The results are summarized in Table 3, where RTV represents relative tumor volume.

[2] = biological target: T1, EGFR D770_N771insSVD in Ba/F3 cell lines (Homo sapiens, UniProt P00533, INS770SVD); test: […]-GLO cell viability assay, Ba/F3 cells with EGFR D770_N771insSVD; type: cell-based
T1 construct: expressed in transfected cells; host or cells: Ba/F3

[3] = biological target: T2, EGFR V769_D770insASV in Ba/F3 cell lines (Homo sapiens, UniProt P00533, INS769ASV); test: […]-GLO cell viability assay, Ba/F3 cells with EGFR V769_D770insASV; type: cell-based
T2 construct: expressed in transfected cells; host or cells: Ba/F3

EGFR A763_Y764insFQEA = EGFR A763_Y764insFQEA (Homo sapiens, UniProt P00533, INS763FQEA); test: HTFR KINEASE-TK kit (Cisbio) inhibition of EGFR mutant A763_Y764insFQEA; type: biochemical
Description: (§1) Compound A13 was tested against EGFR mutants: (i) three exon 20 insertions: […], D770_N771insNPG, and A763_Y764insFQEA; and (ii) one point mutation: L861Q; using an HTFR KINEASE-TK kit (Cisbio) according to the manufacturer's protocol.

[4] = biological target: T3, EGFR L861Q in Ba/F3 cell lines (Homo sapiens, UniProt P00533, L861Q); test: […]-GLO cell viability assay, Ba/F3 cells with EGFR L861Q; type: cell-based
T3 construct: expressed in transfected cells; host or cells: Ba/F3

EGFR D770_N771insNPG = EGFR D770_N771insNPG (Homo sapiens, UniProt P00533, INS770NPG); test: HTFR KINEASE-TK kit (Cisbio) inhibition of EGFR mutant D770_N771insNPG; type: biochemical
Description: as §1

[5] = biological target: T4, EGFR G719S in Ba/F3 cell lines (Homo sapiens, UniProt P00533, G719S); test: […]-GLO cell viability assay, Ba/F3 cells with EGFR G719S; type: cell-based
T4 construct: expressed in transfected cells; host or cells: Ba/F3

[6] = Pharmacokinetics in the xenograft mouse model, single oral dose; type: in vivo, Balb/c Mice; conditions: 80 mg/kg single oral dose
Description: Using the same xenograft mouse model, the pharmacokinetic (PK) parameters of compound A13 were determined at 80 mg/kg with a single oral dose. For each mouse, blood samples were collected at 0, 1, 2, 4, 8, 16, and 24 h after dosing.

[7] = biological target: T5, EGFR H773_V774insNPH in Ba/F3 cell lines (Homo sapiens, UniProt P00533, INS773NPH); test: […]-GLO cell viability assay, Ba/F3 cells with EGFR H773_V774insNPH; type: cell-based
T5 construct: expressed in transfected cells; host or cells: Ba/F3

[8] = biological target: T6, EGFR A763_Y764insFQEA in Ba/F3 cell lines (Homo sapiens, UniProt P00533, INS763FQEA); test: […]-GLO cell viability assay, Ba/F3 cells with EGFR A763_Y764insFQEA; type: cell-based
T6 construct: expressed in transfected cells; host or cells: Ba/F3

EGFR L861Q = EGFR L861Q (Homo sapiens, UniProt P00533, L861Q); test: HTFR KINEASE-TK kit (Cisbio) inhibition of EGFR mutant L861Q; type: biochemical
Description: as §1

EGFR V769_D770insGE = EGFR V769_D770insGE (Homo sapiens, UniProt P00533, INS769GE); test: HTFR KINEASE-TK kit (Cisbio) inhibition of EGFR mutant V769_D770insGE; type: biochemical
Description: as §1

[9] = 20 mg/kg orally once daily for 21 days
[10] = 40 mg/kg orally once daily for 21 days

Chain of EGFR V769_D770insGE (P00533 with tags, fused parts or gaps INS769GE): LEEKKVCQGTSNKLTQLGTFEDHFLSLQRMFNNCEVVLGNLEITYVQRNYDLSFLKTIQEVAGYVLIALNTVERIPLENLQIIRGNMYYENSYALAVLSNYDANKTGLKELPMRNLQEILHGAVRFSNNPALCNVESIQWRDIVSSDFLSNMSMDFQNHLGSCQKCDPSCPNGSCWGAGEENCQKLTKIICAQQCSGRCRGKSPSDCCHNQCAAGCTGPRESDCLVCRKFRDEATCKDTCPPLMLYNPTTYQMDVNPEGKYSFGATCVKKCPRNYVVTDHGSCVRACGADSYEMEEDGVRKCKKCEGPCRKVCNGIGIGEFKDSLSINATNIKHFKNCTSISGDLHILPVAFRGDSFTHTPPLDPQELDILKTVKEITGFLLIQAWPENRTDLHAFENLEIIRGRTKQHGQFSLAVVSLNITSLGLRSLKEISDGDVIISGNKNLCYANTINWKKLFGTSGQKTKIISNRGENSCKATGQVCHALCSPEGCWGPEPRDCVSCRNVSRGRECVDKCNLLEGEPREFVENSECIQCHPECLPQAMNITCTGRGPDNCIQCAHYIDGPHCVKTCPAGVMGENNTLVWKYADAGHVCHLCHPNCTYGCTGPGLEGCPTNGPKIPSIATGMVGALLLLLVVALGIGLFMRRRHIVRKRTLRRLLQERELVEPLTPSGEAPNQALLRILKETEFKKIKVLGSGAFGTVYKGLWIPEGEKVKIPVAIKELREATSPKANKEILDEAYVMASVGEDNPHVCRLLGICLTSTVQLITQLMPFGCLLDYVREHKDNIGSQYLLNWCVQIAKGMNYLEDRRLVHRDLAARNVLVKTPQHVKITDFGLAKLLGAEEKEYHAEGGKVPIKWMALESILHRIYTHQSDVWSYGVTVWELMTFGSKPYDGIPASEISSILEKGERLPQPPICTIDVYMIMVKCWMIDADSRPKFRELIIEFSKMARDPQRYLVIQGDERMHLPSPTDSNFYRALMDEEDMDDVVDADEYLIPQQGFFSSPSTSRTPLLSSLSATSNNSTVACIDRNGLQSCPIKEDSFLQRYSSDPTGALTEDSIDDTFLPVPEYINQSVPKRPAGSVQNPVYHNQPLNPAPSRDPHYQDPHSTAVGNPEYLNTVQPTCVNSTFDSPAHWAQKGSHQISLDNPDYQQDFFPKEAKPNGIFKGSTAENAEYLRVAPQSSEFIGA
T5 sequence (P00533 with tags, fused parts or gaps INS773NPH): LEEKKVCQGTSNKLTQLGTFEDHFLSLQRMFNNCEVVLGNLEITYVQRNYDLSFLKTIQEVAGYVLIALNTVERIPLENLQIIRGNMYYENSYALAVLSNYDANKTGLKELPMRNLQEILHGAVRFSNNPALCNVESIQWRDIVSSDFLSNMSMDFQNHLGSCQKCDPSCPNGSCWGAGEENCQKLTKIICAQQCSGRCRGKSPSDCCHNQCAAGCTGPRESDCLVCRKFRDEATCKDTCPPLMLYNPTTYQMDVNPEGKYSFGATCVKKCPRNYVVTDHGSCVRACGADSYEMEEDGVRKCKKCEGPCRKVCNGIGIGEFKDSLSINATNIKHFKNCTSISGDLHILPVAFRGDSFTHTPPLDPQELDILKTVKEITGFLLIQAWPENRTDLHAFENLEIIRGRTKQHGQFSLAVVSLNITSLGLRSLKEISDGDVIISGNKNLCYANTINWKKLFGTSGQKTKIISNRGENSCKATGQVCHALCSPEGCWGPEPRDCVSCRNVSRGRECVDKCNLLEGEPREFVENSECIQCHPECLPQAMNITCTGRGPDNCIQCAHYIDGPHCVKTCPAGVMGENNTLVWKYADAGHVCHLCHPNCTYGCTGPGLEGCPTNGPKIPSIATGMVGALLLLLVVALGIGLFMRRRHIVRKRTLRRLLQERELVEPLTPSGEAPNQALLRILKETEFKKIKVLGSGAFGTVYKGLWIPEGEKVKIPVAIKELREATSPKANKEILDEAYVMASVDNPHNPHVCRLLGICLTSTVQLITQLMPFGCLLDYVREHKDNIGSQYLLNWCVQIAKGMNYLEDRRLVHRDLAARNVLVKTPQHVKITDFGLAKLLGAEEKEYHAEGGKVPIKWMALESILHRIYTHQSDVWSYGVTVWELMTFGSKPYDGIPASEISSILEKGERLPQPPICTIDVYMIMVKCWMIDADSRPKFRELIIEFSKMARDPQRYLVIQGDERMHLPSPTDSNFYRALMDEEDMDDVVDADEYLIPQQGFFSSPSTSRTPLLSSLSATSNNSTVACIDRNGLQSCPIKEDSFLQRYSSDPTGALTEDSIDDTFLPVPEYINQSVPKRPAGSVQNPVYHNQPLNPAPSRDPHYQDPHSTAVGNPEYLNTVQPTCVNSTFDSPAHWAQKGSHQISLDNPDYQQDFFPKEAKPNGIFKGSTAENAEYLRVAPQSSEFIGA
T1 sequence (P00533 with tags, fused parts or gaps INS770SVD): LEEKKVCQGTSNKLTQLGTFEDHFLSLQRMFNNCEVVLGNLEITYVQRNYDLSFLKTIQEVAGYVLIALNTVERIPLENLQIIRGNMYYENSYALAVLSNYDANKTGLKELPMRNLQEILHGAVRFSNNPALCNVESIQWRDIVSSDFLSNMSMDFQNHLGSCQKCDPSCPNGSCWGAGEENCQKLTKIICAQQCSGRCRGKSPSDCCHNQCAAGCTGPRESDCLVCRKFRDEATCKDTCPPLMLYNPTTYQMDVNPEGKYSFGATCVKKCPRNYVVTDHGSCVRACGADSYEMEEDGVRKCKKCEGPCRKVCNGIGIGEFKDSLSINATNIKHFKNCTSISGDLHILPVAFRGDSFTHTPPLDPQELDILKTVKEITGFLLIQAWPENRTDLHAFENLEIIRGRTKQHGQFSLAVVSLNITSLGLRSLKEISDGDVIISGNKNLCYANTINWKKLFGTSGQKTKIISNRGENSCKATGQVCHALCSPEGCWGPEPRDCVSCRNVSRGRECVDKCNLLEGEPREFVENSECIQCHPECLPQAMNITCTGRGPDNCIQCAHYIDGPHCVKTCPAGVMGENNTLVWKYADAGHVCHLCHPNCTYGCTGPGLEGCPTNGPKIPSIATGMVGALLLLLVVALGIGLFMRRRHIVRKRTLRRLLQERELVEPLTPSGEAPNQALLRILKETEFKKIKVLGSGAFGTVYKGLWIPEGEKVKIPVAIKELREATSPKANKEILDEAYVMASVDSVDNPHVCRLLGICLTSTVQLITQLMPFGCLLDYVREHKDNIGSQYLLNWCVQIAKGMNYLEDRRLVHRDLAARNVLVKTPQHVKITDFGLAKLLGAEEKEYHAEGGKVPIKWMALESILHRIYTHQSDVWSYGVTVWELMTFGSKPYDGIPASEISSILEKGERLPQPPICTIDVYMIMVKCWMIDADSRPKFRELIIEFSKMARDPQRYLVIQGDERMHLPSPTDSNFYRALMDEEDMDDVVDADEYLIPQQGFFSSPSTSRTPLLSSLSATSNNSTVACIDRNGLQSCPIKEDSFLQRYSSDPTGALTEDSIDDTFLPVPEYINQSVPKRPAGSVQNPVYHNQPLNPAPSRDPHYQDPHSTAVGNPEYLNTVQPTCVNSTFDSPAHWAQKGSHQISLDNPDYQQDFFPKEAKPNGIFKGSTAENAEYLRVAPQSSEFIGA
Chain of EGFR D770_N771insNPG (P00533 with tags, fused parts or gaps INS770NPG): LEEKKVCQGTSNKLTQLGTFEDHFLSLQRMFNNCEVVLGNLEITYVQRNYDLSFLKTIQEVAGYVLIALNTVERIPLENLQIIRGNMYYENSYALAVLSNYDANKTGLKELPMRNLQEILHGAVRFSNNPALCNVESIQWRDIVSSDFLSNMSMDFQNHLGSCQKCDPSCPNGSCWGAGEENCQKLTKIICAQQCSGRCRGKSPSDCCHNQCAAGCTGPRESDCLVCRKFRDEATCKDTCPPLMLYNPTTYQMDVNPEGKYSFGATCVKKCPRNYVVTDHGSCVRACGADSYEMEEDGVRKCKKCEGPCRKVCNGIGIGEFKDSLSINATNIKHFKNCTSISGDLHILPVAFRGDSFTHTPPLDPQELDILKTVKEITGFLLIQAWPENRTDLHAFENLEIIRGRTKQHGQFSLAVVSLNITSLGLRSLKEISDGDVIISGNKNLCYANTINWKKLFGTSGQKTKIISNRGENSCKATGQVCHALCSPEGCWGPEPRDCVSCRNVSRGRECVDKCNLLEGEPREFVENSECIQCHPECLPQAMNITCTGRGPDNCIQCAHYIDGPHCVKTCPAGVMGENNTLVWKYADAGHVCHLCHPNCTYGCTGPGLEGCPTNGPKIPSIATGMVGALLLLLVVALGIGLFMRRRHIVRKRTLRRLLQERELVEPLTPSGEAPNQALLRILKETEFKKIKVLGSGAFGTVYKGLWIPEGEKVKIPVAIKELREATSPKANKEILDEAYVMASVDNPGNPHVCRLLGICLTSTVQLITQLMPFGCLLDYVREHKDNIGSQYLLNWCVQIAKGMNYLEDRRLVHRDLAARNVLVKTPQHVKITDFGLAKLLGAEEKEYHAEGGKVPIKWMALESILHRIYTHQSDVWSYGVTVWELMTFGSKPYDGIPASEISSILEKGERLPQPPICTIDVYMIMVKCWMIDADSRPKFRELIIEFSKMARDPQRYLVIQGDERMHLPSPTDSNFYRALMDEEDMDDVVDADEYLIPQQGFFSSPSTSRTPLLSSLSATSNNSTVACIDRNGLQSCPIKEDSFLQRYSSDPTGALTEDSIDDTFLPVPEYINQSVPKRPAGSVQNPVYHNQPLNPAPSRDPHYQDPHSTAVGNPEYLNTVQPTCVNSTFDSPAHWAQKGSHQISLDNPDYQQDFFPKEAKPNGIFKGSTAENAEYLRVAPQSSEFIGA

Compound: C=CC(=O)Nc1cc(Nc2nccc(-c3cnc4c(C)cccn34)n2)c(OC)cc1N(C)CCN(C)C [A13, N-(2-((2-(dimethylamino)ethyl)(methyl)amino)-4-methoxy-5-((4-(8-methylimidazo[1,2-a]-pyridin-3-yl)pyrimidin-2-yl)amino)phenyl)acrylamide]
- TV (mm^3) on Day 0 ([1]; 20 mg/kg group): 86 ± 6 mm^3
- RTV (relative tumor volume) [1, 9]: 517 ± 61
- TV (mm^3) on Day 21 [1, 9]: 602 ± 67 mm^3
- TV (mm^3) on Day 0 ([1]; 40 mg/kg group): 89 ± 6 mm^3
- RTV (relative tumor volume) [1, 10]: 281
- TV (mm^3) on Day 21 [1, 10]: 370 ± 31 mm^3
- TGI (tumor growth inhibition) ([1]; 40 mg/kg orally once daily for 21 days, vs. vehicle control (P=0.016)): 61%
- TV (mm^3) on Day 0 ([1]; 80 mg/kg group): 86 mm^3 and 86 ± 6 mm^3
- TV (mm^3) on Day 21 ([1]; 80 mg/kg orally once daily for 21 days): 36 mm^3 and 36 ± 9 mm^3
- TGI (tumor growth inhibition) ([1]; 80 mg/kg orally once daily for 21 days, vs. vehicle control (P<0.001)): 107%
- Tolerability ([1]; 20, 40, and 80 mg/kg orally once daily for 21 days in tumor-bearing mice): well tolerated
- IC50 [2]: 29 nM
- IC50 [3]: 73 nM
- IC50 (EGFR A763_Y764insFQEA): 0.73 nM
- IC50 [4]: 5 nM
- IC50 (EGFR D770_N771insNPG): 0.42 nM
- IC50 [5]: 2 nM
- CLz [6]: 21.2 ± 1.8 L/h/kg
- Vz [6]: 52 ± 17 L/kg
- Cmax ([6]; Balb/c, mouse, blood): 1380 ± 432 ng/mL
- half-life ([6]; Balb/c, mouse, blood): 102 ± 36 min
- AUC(0-t) ([6]; Balb/c, mouse, blood, 0-24 h): 3600 ± 273 ng·h/mL
- IC50 [7]: 62 nM
- IC50 [8]: 4 nM
- IC50 (EGFR L861Q): 0.36 nM
- IC50 (EGFR V769_D770insGE): 0.62 nM
